Results taken from patent US10377743B2, “Inhibitors of RAS and methods of use thereof” (Araxes Pharma LLC, priority 2016, dated 2019).

biological target: T1, KRAS G12C 1-169, his-tagged protein, GDP-loaded (Homo sapiens, UniProt P01116, G12C); assay: Biochemical assay: covalent binding (modification %) to KRAS G12C by mass spectrometry; conditions: 2 hour incubation period, 8 μM compound (compounds 21-92)
T1 construct: KRAS G12C 1-169, his-tagged protein, GDP-loaded

Structure (SMILES)	Binding %
C=CC(=O)N1CC(N2Cc3ccc(-c4cccc(C#N)c4)cc3C2=O)C1 [Compound 55, 3-(2-(1-acryloylazetidin-3-yl)-3-oxoisoindolin-5-yl)benzonitrile]	+ (+ indicates binding activity up to 10%)
C=CC(=O)N1CCC(N2Cc3c(C(N)=O)cc(-c4c(C)ccc5[nH]ncc45)cc3C2=O)C1 (centres unmarked) [Compound 85, 2-(1-acryloylpyrrolidin-3-yl)-6-(5-methyl-1H-indazol-4-yl)-1-oxoisoindoline-4-carboxamide]	+ (+ indicates binding activity up to 10%)
C=CC(=O)N1CC(N2Cc3ccc(-c4cccnc4O)cc3C2=O)C1 [Compound 68, 2-(1-acryloylazetidin-3-yl)-6-(2-hydroxypyridin-3-yl)isoindolin-1-one]	+ (+ indicates binding activity up to 10%)
C=CC(=O)N1CC(N2CCc3ccc(-c4cc(O)cc5ccccc45)cc3C2=O)C1 [Compound 35, 2-(1-acryloylazetidin-3-yl)-7-(3-hydroxynaphthalen-1-yl)-3,4-dihydroisoquinolin-1(2H)-one]	+++ (+++ indicates binding activity greater than 50%)
C=CC(=O)N1CC(N2Cc3ccc(-c4cccc5[nH]ncc45)cc3C2=O)C1 [Compound 48, 2-(1-acryloylazetidin-3-yl)-6-(1H-indazol-4-yl)isoindolin-1-one]	+ (+ indicates binding activity up to 10%)
C=CC(=O)N1CC(N2CCc3ccc(-c4c(C)ccc5[nH]ncc45)cc3CC2)C1 [Compound 37, 1-(3-(7-(5-methyl-1H-indazol-4-yl)-4,5-dihydro-1H-benzo[d]azepin-3(2H)-yl)azetidin-1-yl)prop-2-en-1-one]	+ (+ indicates binding activity up to 10%)
C=CC(=O)N1CC(N2Cc3c(O)cc(-c4cc(O)cc5ccccc45)cc3C2=O)C1 [Compound 43, 2-(1-acryloylazetidin-3-yl)-4-hydroxy-6-(3-hydroxynaphthalen-1-yl)isoindolin-1-one]	+++ (+++ indicates binding activity greater than 50%)
C=CC(=O)N1CC(N2Cc3cc(C)c(-c4cc(O)cc5ccccc45)cc3C2=O)C1 [Compound 30, 2-(1-acryloylazetidin-3-yl)-6-(3-hydroxynaphthalen-1-yl)-5-methylisoindolin-1-one]	+++ (+++ indicates binding activity greater than 50%)
C=CC(=O)N1CC(N2Cc3ccc(-c4ccc(C#N)cc4)cc3C2=O)C1 [Compound 80, 4-(2-(1-acryloylazetidin-3-yl)-3-oxoisoindolin-5-yl)benzonitrile]	+ (+ indicates binding activity up to 10%)
C=CC(=O)N1CC(N2Cc3ccc(-c4c(O)cccc4F)cc3CC2=O)C1 [Compound 41, 2-(1-acryloylazetidin-3-yl)-6-(2-fluoro-6-hydroxyphenyl)-1,2-dihydroisoquinolin-3(4H)-one]	++ (++ indicates binding activity from 10 to 50%)
C=CC(=O)N1CC(N2Cc3ccc(N4CCc5ccccc54)cc3C2=O)C1 [Compound 57, 2-(1-acryloylazetidin-3-yl)-6-(indolin-1-yl)isoindolin-1-one]	+ (+ indicates binding activity up to 10%)
C=CC(=O)N1CC(N2Cc3c(O)cc(-c4c(C)ccc5[nH]ncc45)cc3C2=O)C1 [Compound 44, 2-(1-acryloylazetidin-3-yl)-4-hydroxy-6-(5-methyl-1H-indazol-4-yl)isoindolin-1-one]	++ (++ indicates binding activity from 10 to 50%)
C=CC(=O)N1CC(N2Cc3ccc(-c4cccc(NC)c4)cc3C2=O)C1 [Compound 58, 2-(1-acryloylazetidin-3-yl)-6-(3-(methylamino)phenyl)isoindolin-1-one]	+ (+ indicates binding activity up to 10%)
C=CC(=O)N1CC(N2Cc3ccc(-c4cccc5[nH]cnc45)cc3C2=O)C1 [Compound 46, 2-(1-acryloylazetidin-3-yl)-6-(1H-benzo[d]imidazol-4-yl)isoindolin-1-one]	+ (+ indicates binding activity up to 10%)
C=CC(=O)N1CC(N2Cc3ccc(-c4ccc(NC)cc4)cc3C2=O)C1 [Compound 52, 2-(1-acryloylazetidin-3-yl)-6-(4-(methylamino)phenyl)isoindolin-1-one]	+ (+ indicates binding activity up to 10%)
C=CC(=O)N1CCC(N2Cc3c(C(N)=O)cc(-c4c(O)cccc4F)cc3C2=O)C1 (centres unmarked) [Compound 91, 2-(1-acryloylpyrrolidin-3-yl)-6-(2-fluoro-6-hydroxyphenyl)-1-oxoisoindoline-4-carboxamide]	+ (+ indicates binding activity up to 10%)
C=CC(=O)N1CC(N2Cc3ccc(-c4cccc5cn[nH]c45)cc3C2=O)C1 [Compound 53, 2-(1-acryloylazetidin-3-yl)-6-(1H-indazol-7-yl)isoindolin-1-one]	+ (+ indicates binding activity up to 10%)
C=CC(=O)N1CC(N2Cc3cc(Cl)c(-c4cc(O)cc5ccccc45)cc3C2=O)C1 [Compound 70, 2-(1-acryloylazetidin-3-yl)-5-chloro-6-(3-hydroxynaphthalen-1-yl)isoindolin-1-one]	+++ (+++ indicates binding activity greater than 50%)
C=CC(=O)N1CC(N2Cc3ccc(-c4nc(N)ncc4C)cc3C2=O)C1 [Compound 88, 2-(1-acryloylazetidin-3-yl)-6-(2-amino-5-methylpyrimidin-4-yl)isoindolin-1-one]	+ (+ indicates binding activity up to 10%)
C=CC(=O)N1CC(N2Cc3ccc(-c4cn[nH]c4)cc3C2=O)C1 [Compound 66, 2-(1-acryloylazetidin-3-yl)-6-(1H-pyrazol-4-yl)isoindolin-1-one]	+ (+ indicates binding activity up to 10%)
C=CC(=O)N1CC(N2C(=O)c3ccc(-c4c(C)ccc5[nH]ncc45)cc3C2=O)C1 [Compound 32, 2-(1-acryloylazetidin-3-yl)-5-(5-methyl-1H-indazol-4-yl)isoindoline-1,3-dione]	+ (+ indicates binding activity up to 10%)

same assay, conditions: 2 hour incubation period, 10 μM compound (compounds 1-20)

Structure (SMILES)	Binding %
C=CC(=O)N1CCC(N2Cc3ccc(-c4cc(O)cc5ccccc45)cc3C2=O)CC1 [Compound 7, 2-(1-acryloylpiperidin-4-yl)-6-(3-hydroxynaphthalen-1-yl)isoindolin-1-one]	+ (+ indicates binding activity up to 10%)
C=CC(=O)N1CC(N2Cc3ccc(-c4c[nH]c5ccccc45)cc3C2=O)C1 [Compound 16, 2-(1-acryloylazetidin-3-yl)-6-(1H-indol-3-yl)isoindolin-1-one]	++ (++ indicates binding activity from 10 to 50%)
C=CC(=O)N1CC(N2Cc3ccc(Nc4ccccc4)cc3C2=O)C1 [Compound 20, 2-(1-acryloylazetidin-3-yl)-6-(phenylamino)isoindolin-1-one]	+ (+ indicates binding activity up to 10%)
C=CC(=O)NCCN1Cc2ccc(-c3cc(O)cc4ccccc34)cc2C1=O [Compound 18, N-(2-(6-(3-hydroxynaphthalen-1-yl)-1-oxoisoindolin-2-yl)ethyl)acrylamide]	+ (+ indicates binding activity up to 10%)
C=CC(=O)N1CC(N2Cc3c(C)cc(-c4cc(O)cc5ccccc45)cc3C2=O)C1 [Compound 14, 2-(1-acryloylazetidin-3-yl)-6-(3-hydroxynaphthalen-1-yl)-4-methylisoindolin-1-one]	+++ (+++ indicates binding activity greater than 50%)
